Six molecules from PubChem BioAssay AID2060503 (Molecular Pharmacology Branch, DTP, NCI, 2025) can be followed below.

Several values for one entry are separate records, joined by “and”; a condition that tells them apart may be missing. Identical values can stand only once.

The assay relates to 817829-284-R-J1-PDC complex spheroids, viability. In words: Anticancer human tumor 817829-284-R-J1-PDC patient-derived colon adenocarcinoma cell line growth inhibition [GQUAD]. To be noted: for viability, T/C: stronger effect = lower value. From the text:
DNA G-quadruplex Stabilizer Agents in Combinations in Complex Spheroids
A high-throughput screen of multi-cell type tumor spheroids was designed to identify active combinations of DNA G-quadruplex stabilizer agents and targeted small molecules. Complex spheroids include a stromal component modeled by human endothelial cells (HUVEC) and fibroblasts modeled by human mesenchymal stem cells (MSCs). The concentration ranges selected for each drug and investigational agent were based upon clinically achievable concentrations if the clinical Cmax of the agent was known.
Compounds. The drugs and investigational agents: pidnarulex (CX-5461; NSC782164), APTO-253 (NSC789042), BRACO-19 (NSC847499), peposertib (NSC802822), ceralasertib (NSC780249), elimusertib (NSC800525), camonsertib (NSC841442), AZD-1390 (NSC803789), olaparib (NSC753686), talazoparib (NSC767125), ART-558 (NSC835418), sotorasib (NSC818433), MRTX-1133 (NSC836407), SN-38 (NSC673596), topotecan (NSC609699), etoposide (NSC141540), doxorubicin (NSC123127), gemcitabine (NSC613327), 5-fluorouracil (NSC19893), paclitaxel (NSC125973), vemurafenib (NSC761431), panobinostat (NSC761190), R-306465 (JNJ-16241199; NSC773264), adavosertib (NSC754352), TP-3654 (NSC805149), carboplatin (NSC241240), KSQ-4279 (NSC840948), and staurosporine (NSC755774) were obtained from the National Cancer Institute (NCI) Developmental Therapeutics Program Chemical Repository (34). The FDA-approved anticancer drug set is available from the NCI Developmental Therapeutics Program. […] The stock solutions were prepared in dimethyl sulfoxide (DMSO, Sigma-Aldrich, St. Louis, MO, cat. D2650) at 800-fold the tested concentration and stored at -70 degrees C prior to their use. All drugs and investigational agents were tested over a range starting from a high concentration at or near the clinical Cmax and decreasing in half-log increments. If the clinical Cmax for an agent had not been determined, the highest concentration tested was 10 microM.
2.3 Cell Culture. All cells were maintained in an incubator at 37 degrees C and 5% CO2 with 95% humidity. The PDC lines were cultured according to standard operating procedures established by the NCI PDMR. All PDCs were thawed and cultured in Matrigel-coated flasks prepared with a working solution of 1X Ham's F-12 nutrient mix, without supplementation (Invitrogen, cat. 11765054), 100 U/mL penicillin-streptomycin (Invitrogen, cat. 15140122), and 2.5% Matrigel (Corning Inc., cat. 354248) for the first three passages. The 857933-349-R-J2-PDC line was cultured in 6C/Colon 1B media, which includes advanced DMEM/F-12 (Thermo Fisher Scientific, cat. 12634028), 10 mM HEPES (Thermo Fisher Scientific, cat. 15630080), 1X GlutaMAX supplement (Thermo Fisher Scientific, cat. 35050061), 0.1 mg/mL primocin (InvivoGen, cat. ant-pm-2), 10% defined fetal bovine serum, heat inactivated (HyClone Laboratories Inc., cat. SH30070.03HI), 50% L-WRN conditioned media (ATCC, cat. CRL-3276), 1.25 mM N-Acetyl-L-cysteine (Sigma-Aldrich, cat. A9165), 10 mM nicotinamide (Sigma-Aldrich, cat. N0636), 1X B-27 supplement (Thermo Fisher Scientific, cat. 17504044), 1X N-2 supplement (Thermo Fisher Scientific, cat. 17502048), 10 microM Y-27632 dihydrochloride (Tocris Bioscience, cat. 1254), and 50 ng/mL human EGF recombinant protein (Thermo Fisher Scientific, cat. PHG0311). The 485176-168-R4-J1-PDC line was cultured in Panc media, which includes all 6C/Colon 1B media components plus 100 ng/mL human FGF-10 (Thermo Fisher Scientific, cat. 100-26), 500 nM SB-431542 (Selleckchem, cat. S1067), and gastrin (Tocris, cat. 3006).
[…]
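Note: spheroids exposed to agents for 7 days before readout.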
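Throughout, for viability, T/C: percent viability relative to DMSO vehicle control taken as 100%.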

By viability, T/C is commonly meant the ratio of treated to control. One may read the IC50 as the point on the concentration scale where inhibition reaches its midpoint. Turning to `COc1cc(C2c3cc4c(cc3C(OC3OC5COC(C)OC5C(O)C3O)C3COC(=O)C23)OCO4)cc(OC)c1O` (configuration not stated), the viability, T/C (compound 0.0316 µM) was 115% and 98.4% and 91%; the viability, T/C (compound 0.1 µM) was 62% and 67.7% and 92.4%; the viability, T/C (compound 0.316 µM) was 29.3% and 26.7% and 34.1%; the viability, T/C (compound 1 µM) is 26.2% and 28.1% and 42.2%; the viability, T/C (compound 3.16 µM) is 22.6% and 26.7% and 29.9%; the viability, T/C (compound 10 µM) was 10.5% and 9.2% and 10.2%. Also, the concentration for half-maximal inhibition (IC50) (curve of compound) was 159 nM and 166 nM and 230 nM.

As for `CC[C@@]1(O)C(=O)OCc2c1cc1n(c2=O)Cc2cc3c(CN(C)C)c(O)ccc3nc2-1`, the viability, T/C runs as follows: (compound 0.000999 µM) 107% and 116% and 105%; (compound 0.00316 µM) 94.3% (2×) and 87.9%; (compound 0.00999 µM) 107% (2×) and 109%; (compound 0.0316 µM) 53.6% and 60.3% and 47.5%; (compound 0.0999 µM) 33.9% and 45.5% and 27.7%; (compound 0.316 µM) 26.1% and 37.7% and 29.7%. The IC50 (curve of compound) was 37.6 nM and 59.5 nM and 30.1 nM.

For `C=CC(=O)N1CCN(c2nc(=O)n(-c3c(C)ccnc3C(C)C)c3nc(-c4c(O)cccc4F)c(F)cc23)C(C)C1` (configuration not stated), the viability, T/C reads like this: (compound 0.0316 µM) 94.6% and 98.7% and 113%; (compound 0.1 µM) 87.2% and 97.6% and 96.2%; (compound 0.316 µM) 96% and 99.3% and 113%; (compound 1 µM) 84.4% and 93.2% and 89.2%; (compound 3.16 µM) 108% and 102% and 112%; (compound 10 µM) 98.3% and 81.2% and 102%. For the same molecule, the IC50 (curve of compound) was over 10000 nM.

Consider `CC[C@@]1(O)C(=O)OCc2c1cc1n(c2=O)Cc2cc3c(CN(C)C)c(O)ccc3nc2-1` + Cc1[nH]c2ccc(F)cc2c1-c1nc2c3cccnc3c3ncccc3c2[nH]1, for which the 50% inhibitory concentration (IC50) is, setting by setting: (curve of first compound, second compound 0.0316 µM) 47.6 nM; (curve of first compound, second compound 0.1 µM) 60.3 nM; (curve of first compound, second compound 0.316 µM) 51.7 nM; (curve of first compound, second compound 1 µM) 52.2 nM; (curve of first compound, second compound 3.16 µM) 26.5 nM; (curve of first compound, second compound 10 µM) under 0.999 nM. In addition, the viability, T/C was 119% (second compound 0.0316 µM, first compound 0.000999 µM); 84.5% (second compound 0.0316 µM, first compound 0.00316 µM); 92.7% (second compound 0.0316 µM, first compound 0.00999 µM); 51.8% (second compound 0.0316 µM, first compound 0.0316 µM); 34.9% (second compound 0.0316 µM, first compound 0.0999 µM); 26.6% (second compound 0.0316 µM, first compound 0.316 µM). Also, the viability, T/C was 98.8% (second compound 0.1 µM, first compound 0.000999 µM); 104% (second compound 0.1 µM, first compound 0.00316 µM); 88.6% (second compound 0.1 µM, first compound 0.00999 µM); 70.9% (second compound 0.1 µM, first compound 0.0316 µM); 33.1% (second compound 0.1 µM, first compound 0.0999 µM); 27.1% (second compound 0.1 µM, first compound 0.316 µM). For the same molecule, the viability, T/C is 90% (second compound 0.316 µM, first compound 0.000999 µM); 111% (second compound 0.316 µM, first compound 0.00316 µM); 101% (second compound 0.316 µM, first compound 0.00999 µM); 63.6% (second compound 0.316 µM, first compound 0.0316 µM); 34.2% (second compound 0.316 µM, first compound 0.0999 µM); 26.1% (second compound 0.316 µM, first compound 0.316 µM). In addition, the viability, T/C by setting is: (second compound 1 µM, first compound 0.000999 µM) 91.8%; (second compound 1 µM, first compound 0.00316 µM) 110%; (second compound 1 µM, first compound 0.00999 µM) 109%; (second compound 1 µM, first compound 0.0316 µM) 64.8%; (second compound 1 µM, first compound 0.0999 µM) 32.4%; (second compound 1 µM, first compound 0.316 µM) 29.1%. The viability, T/C is, setting by setting: (second compound 3.16 µM, first compound 0.000999 µM) 108%; (second compound 3.16 µM, first compound 0.00316 µM) 111%; (second compound 3.16 µM, first compound 0.00999 µM) 95.1%; (second compound 3.16 µM, first compound 0.0316 µM) 41.9%; (second compound 3.16 µM, first compound 0.0999 µM) 18.2%; (second compound 3.16 µM, first compound 0.316 µM) 15.7%. Moreover, the viability, T/C was 11% (second compound 10 µM, first compound 0.000999 µM); 22.5% (second compound 10 µM, first compound 0.00316 µM); 26.1% (second compound 10 µM, first compound 0.00999 µM); 7.2% (second compound 10 µM, first compound 0.0316 µM); 5.98% (second compound 10 µM, first compound 0.0999 µM); 5.1% (second compound 10 µM, first compound 0.316 µM).

With `Nc1ccn(C2OC(CO)C(O)C2(F)F)c(=O)n1` (configuration not stated), the viability, T/C is, setting by setting: (compound 0.0316 µM) 24.6% and 9.45% and 15.3%; (compound 0.1 µM) 5.55% and 8% and 4.56%; (compound 0.316 µM) 7.44% and 8.2% and 6.55%; (compound 1 µM) 5.74% and 7.67% and 5.48%; (compound 3.16 µM) 6.14% and 6.82% and 5.88%; (compound 10 µM) 3.68% and 3.93% and 3.72%. In addition, where the note is “curve of compound”, the IC50 is under 31.6 nM.

`CCc1c2c(nc3ccc(O)cc13)-c1cc3c(c(=O)n1C2)COC(=O)[C@]3(O)CC`: the viability, T/C runs as follows: (compound 0.000999 µM) 63% and 65.3% and 63.2%; (compound 0.00316 µM) 26.9% and 40% and 26.7%; (compound 0.00999 µM) 24.7% and 33% and 30.2%; (compound 0.0316 µM) 15.5% and 21.2% and 14.7%; (compound 0.0999 µM) 9.08% and 10.2% and 7.65%; (compound 0.316 µM) 5.27% and 4.91% and 3.96%. The concentration for half-maximal inhibition (IC50) (curve of compound) is 1.58 nM and 2.31 nM and 1.63 nM.
